Patent EP0518216A2, “N-/Arylethyl/-N-alkyl-2-(1-pyrrolidinyl)ethylamine derivatives for CNS disorders” (G.D. Searle & Co., priority 1991, dated 1992)

Legend:
[1] = test system: dynorphin A induced spinal cord injury model; assay: Dynorphin A induced spinal cord injury model (hindlimb motor function); format: in vivo, rat
Source text: Neuroprotective properties of BD-1008 and selected compounds of this invention have been evaluated in the dynorphin A induced spinal cord injury model. Along with several other neuropeptides, dynorphin A has potent vasoconstrictory effects on the vasculature of the rat brain and spinal cord; thus it provides a convenient, reproducible pharmacological means to induce and study ischemic central nervous system injury. Furthermore, localized effects of this peptide on the lumbosacral spinal cord following L4-L5 intervertebral injection allows for simple and straightforward neurological appraisals through assessment of hindlimb motor function.

[2] = biological target: Sigma receptors; assay: Sigma receptor binding assay with [3H]-(+)-3-PPP, crude P2 membranes; conditions: guinea pig brain membranes; determined in independent experiments
Experimental: Sigma receptors were labeled with [^3H]-(+)-3-PPP (109 Ci/mmol).
For most compounds in the study, a concentration range of 0.0005-100 nM was appropriate. […] Twelve concentrations of unlabelled ligand were incubated with 3 nM [^3H](+)-3-PPP as described in Methods. The CDATA iterative curve fitting program (EMF Software, Inc., Baltimore, MD) was used to determine IC50 values. Values are the average of 2-4 experiments, ±SEM. Each experiment was carried out in duplicate. The Cheng-Prussoff equation^27 was then used to convert IC50 values to apparent Ki values.

[3] = biological target: PCP receptors; assay: Phencyclidine (PCP) receptor binding assay with [3H]TCP; conditions: guinea pig brain; determined in independent experiments

Which results are given for `CN(CCc1ccc(Cl)c(Cl)c1)CCN1CCCC1` [BD-1008]?
impact on the primary vascular responses to dynorphin A ([1]; dynorphin A-induced reduction in lumbosacral blood flow): without any measurable impact; neurological recovery from the flaccid hindlimb paralysis ([1]; paralysis from a 20 nanomole dose of dynorphin A, L4-L5 intervertebral injection): significantly improves neurological recovery

Which Kd [2] does the source give for `CCCN1CCC[C@H](c2cccc(O)c2)C1` [[^3H]-(+)-3-PPP] here?
Its Kd is 27.4 nM.

How did the Kd [3] turn out when `c1csc(C2(N3CCCCC3)CCCCC2)c1` [[^3H]TCP] was run?
The Kd was 25 nM.
